Test results reported in patent US20230218630A1, “COMBINATION OF ALCAFTADINE AND A CORTICOSTEROID” (priority 2020, published 2023).

Legend:
[1] = Pharmacokinetics after intranasal administration in rabbits; settings: for Tmax: male, New Zealand white, rabbit, plasma, inhaled or intranasal
Procedure: The pharmacokinetic profiles of the alcaftadine test formulations 4A, 4B, and 4C as well as an olapatdine nasal formulation were each determined on 6 male New Zealand white rabbits.
(§1) The study was carried out on total 24 male New Zealand white rabbits, which were segregated into four groups (G1 to G4, 6 rabbits/group). Mild anaesthesia was induced in all rabbits by inhalation of 2% isoflurane. Three groups (G1-G3) of anaesthetized rabbits were intranasally administered 250 μL of alcaftadine once-daily using the formulations of Examples 10A, 10B, and 10C. A comparator, 250 μL of olopatadine at a concentration of 0.6% w/v, was intranasally administered once-daily to a fourth group G4 of anaesthetized rabbits.
Sampling details for the test and reference formulations: Approximately 0.5 mL of blood sample from each rabbit was withdrawn via marginal ear vein into pre-labelled Eppendorf tubes containing 10% EDTA as an anticoagulant. Blood samples were withdrawn at 0 min, 5 min, 10 min, 15 min, 30 min, 60 min, 120 min, 240 min, 480 min and 1440 min after administration of test and reference formulations.
Procedure for sample preparation: Collected blood samples were mixed gently and kept on crushed ice. Plasma samples were separated after centrifugation at 3500 rpm for 10 min at 4° C. Plasma separation was carried out within 30 min of sample collection and stored at −70±10° C. The animals were euthanized by intravenous administration of sodium thiopental injection overdose and nasal epithelium was collected. Half of the tissues of nasal epithelium were homogenized using phosphate buffered solution (20% homogenation) for quantification of alcaftadine and olopatidine. The remaining half of the tissues were stored in 10% neutral buffered formalin for detailed gross histopathological examination such as necrosis, inflammation or any changes during necropsy.
Rabbit plasma and nasal epithelial tissue concentrations of alcaftadine or olopatidine were determined using a fit-for-purpose LC-MS/MS method with LLOQ of 0.500 ng/mL or 0.250 ng/mL, respectively. The pharmacokinetic parameters were evaluated using Phoenix WinNonlin® Ent-Version 8.0 by non-compartmental analysis.

[2] = target: H2 receptors (Homo sapiens, UniProt P25021); settings: compared to azelastine and olapatadine; cited from earlier work
[3] = target: H1 receptors (Homo sapiens, UniProt P35367); settings: compared to azelastine and olapatadine; cited from earlier work
[4] = Nasal irritation and histopathology of nasal epithelium in rabbits; type: in vivo, male New Zealand white rabbits; settings: intranasal, doses of 0.312 mg, 0.625 mg and 1.25 mg, all three groups
Procedure: as §1
The animals were euthanized by intravenous administration of sodium thiopental injection overdose and nasal epithelium was collected. […] The remaining half of the tissues were stored in 10% neutral buffered formalin for detailed gross histopathological examination such as necrosis, inflammation or any changes during necropsy.

[5] = single administration, doses of 0.625 to 1.25 mg

Chain of H2 receptors (P25021 whole entry): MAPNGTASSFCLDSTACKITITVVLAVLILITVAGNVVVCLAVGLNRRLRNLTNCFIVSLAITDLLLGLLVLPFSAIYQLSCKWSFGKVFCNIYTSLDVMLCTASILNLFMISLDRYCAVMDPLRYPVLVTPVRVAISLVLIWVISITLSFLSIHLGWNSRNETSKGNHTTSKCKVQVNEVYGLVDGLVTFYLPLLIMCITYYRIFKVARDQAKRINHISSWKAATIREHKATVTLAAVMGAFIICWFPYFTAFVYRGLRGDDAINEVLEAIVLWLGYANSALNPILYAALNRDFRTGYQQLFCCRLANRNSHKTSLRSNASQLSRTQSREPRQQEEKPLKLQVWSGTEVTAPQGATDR
Chain of H1 receptors (P35367 whole entry): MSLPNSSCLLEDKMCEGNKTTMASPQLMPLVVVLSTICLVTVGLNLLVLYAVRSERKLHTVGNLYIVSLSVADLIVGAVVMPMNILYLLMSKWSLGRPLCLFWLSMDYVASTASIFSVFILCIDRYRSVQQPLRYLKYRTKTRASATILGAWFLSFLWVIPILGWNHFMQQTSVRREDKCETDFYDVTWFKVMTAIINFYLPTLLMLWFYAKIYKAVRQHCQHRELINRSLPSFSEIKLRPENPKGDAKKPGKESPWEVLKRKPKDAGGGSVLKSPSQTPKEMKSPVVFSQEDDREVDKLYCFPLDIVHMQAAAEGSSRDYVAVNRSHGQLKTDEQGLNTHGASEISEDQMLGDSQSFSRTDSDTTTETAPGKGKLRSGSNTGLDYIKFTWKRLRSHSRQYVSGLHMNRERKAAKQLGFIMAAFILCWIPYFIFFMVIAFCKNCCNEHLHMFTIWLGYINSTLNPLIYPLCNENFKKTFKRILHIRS

Which “plasma concentration / systemic exposure” value ([1]; intranasal, rabbits) does the source give for `CN1CCC(=C2c3ccccc3CCn3c(C=O)cnc32)CC1` [Alcaftadine, 6,11-dihydro-11-(1-methyl-4-piperidinylidene)-5H-imidazo[2,1-b][3]benzazepine-3-carboxaldehyde] here?
The value was “dose proportional with overall low systemic exposure”.

And the Tmax ([1]; 0.312 mg)?
Its Tmax is 4.8 min.

And the Tmax ([1]; 0.625 mg)?
Its Tmax is 4.8 min.

What about the Tmax ([1]; 1.25 mg) of the same compound?
Its Tmax is 4.8 min.

What about the “area under the curve (AUC0-24h)” value [1, 5] of the same compound?
The value was “dose proportional”.

And the “peak plasma concentrations (Cmax)” value [1, 5]?
The value was “dose proportional”.

And the “binding affinity to H2 receptors” value [2]?
The value was “higher binding affinity”.

And the “binding affinity to H1 receptors” value [3]?
Its value is “higher binding affinity”.

And the “signs or symptoms of inflammation or irritation” value [4]?
The value was “no signs or symptoms of inflammation or irritation were observed”.
